Assay results reported in PubChem BioAssay (NCI).
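A five-concentration, 48-hour dose response in 96-well plates underlies each endpoint, interpolated linearly between surrounding concentrations. The concentration for 50% growth inhibition is given as GI50. At the TGI there is no net growth.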

Legend:
Test in all cases: DTP human tumour cell line panel, 48 h
MDA-MB-231 breast = system: MDA-MB-231 breast
RPMI-8226 leukemia = system: RPMI-8226 leukemia
MOLT-4 leukemia = system: MOLT-4 leukemia
HCC-2998 colon = system: HCC-2998 colon
OVCAR-8 ovarian = system: OVCAR-8 ovarian
NCI/ADR-RES ovarian = system: NCI/ADR-RES ovarian
SF-539 CNS = system: SF-539 CNS
MALME-3M melanoma = system: MALME-3M melanoma
U251 CNS = system: U251 CNS
OVCAR-4 ovarian = system: OVCAR-4 ovarian
TK-10 renal = system: TK-10 renal
NCI-H23 lung = system: NCI-H23 lung
OVCAR-3 ovarian = system: OVCAR-3 ovarian
SNB-19 CNS = system: SNB-19 CNS
HCT-116 colon = system: HCT-116 colon
MDA-MB-435 = system: MDA-MB-435
RXF 393 renal = system: RXF 393 renal

Row | Compound | TGI (MDA-MB-231 breast) | TGI (RPMI-8226 leukemia) | TGI (MOLT-4 leukemia) | TGI (HCC-2998 colon) | TGI (OVCAR-8 ovarian) | TGI (NCI/ADR-RES ovarian) | TGI (SF-539 CNS) | TGI (MALME-3M melanoma) | TGI (U251 CNS) | TGI (OVCAR-4 ovarian) | TGI (TK-10 renal) | TGI (NCI-H23 lung) | TGI (OVCAR-3 ovarian) | TGI (SNB-19 CNS) | TGI (HCT-116 colon) | TGI (MDA-MB-435) | TGI (RXF 393 renal) | GI50 (HCT-116 colon)
1 | O=C(Cc1ccccc1)NNc1nc(NNC(=O)c2ccncc2)nc(Nc2ccccc2)n1 | > 10 µM | > 10 µM | > 10 µM | > 10 µM | > 10 µM | > 10 µM | > 10 µM | > 10 µM | > 10 µM | > 10 µM | > 10 µM |  |  |  |  |  |  | 
2 | O=C(/C=C\c1ccccc1)Oc1ccc(/C=C2\CCCCC2=O)cc1 | > 100 µM | 50.6 µM | 16.5 µM | > 100 µM | > 100 µM |  | > 100 µM | > 100 µM | > 100 µM | > 100 µM | 43.2 µM | > 100 µM | > 100 µM | > 100 µM | > 100 µM | 84.6 µM |  | 
3 | O=C(Nc1nnc(-c2c(Cl)c(Cl)c(Cl)c(Cl)c2-c2nc3cc(C(=O)c4ccccc4)ccc3[nH]2)o1)c1ccccc1 | 33.7 µM | 30.4 µM | 72.5 µM |  | > 100 µM | 33.3 µM | 23.7 µM |  | 26.5 µM | 95.1 µM | 50.7 µM | 54.2 µM | 44.7 µM | 34.7 µM | 87.3 µM | 30.8 µM | 39.1 µM | 
4 | C/C1=C\[C@H](C)C[C@H](C)OC(=O)C[C@H](c2ccc(O)cc2)NC(=O)[C@H](Cc2ccc(O)c(Br)c2)N(C)C(=O)[C@H](C)NC(=O)[C@@H](C)C1 | > 25 µM | > 25 µM | > 25 µM |  | > 25 µM | > 25 µM |  | > 25 µM | > 25 µM | > 25 µM | > 25 µM | > 25 µM | > 25 µM | > 25 µM | > 25 µM | > 25 µM |  | 
5 | COc1cc2nc(-c3ccccc3F)[nH]c(=O)c2cc1OC | > 100 µM | > 100 µM | > 100 µM | > 100 µM | > 100 µM | > 100 µM |  | > 100 µM |  | > 100 µM | > 100 µM | > 100 µM | > 100 µM | > 100 µM | > 100 µM |  | > 100 µM | 
6 | COc1ccc(OC)c(C#Cc2ccc(OC)c(C(=O)NCCc3ccc(F)cc3)c2)c1 |  | > 100 µM | > 100 µM | 7.73 µM | > 100 µM | > 100 µM |  |  | > 100 µM | > 100 µM | > 100 µM | > 100 µM |  | > 100 µM | > 100 µM | 4.62 µM |  | 4.7 µM
7 | Cc1c2cccc-2ccc2c1[nH]c1ccc(Br)cc12 | 18.8 µM | 10.2 µM |  | 49.3 µM | 22.4 µM | 38.4 µM | 19.1 µM | 21.5 µM | 12.1 µM | 6.62 µM | 32.2 µM | 22.4 µM | 13.9 µM | 23.8 µM | 17.2 µM | 16.7 µM |  | 
8 | COc1ccc(C2CC(=O)CC(c3ccc(OC)cc3)C23C(=O)NC(=S)NC3=O)cc1 (stereo unspecified) |  |  | > 100 µM | > 100 µM | > 100 µM | > 100 µM | > 100 µM |  | > 100 µM | > 100 µM | > 100 µM | > 100 µM | > 100 µM | > 100 µM | > 100 µM | > 100 µM | > 100 µM | 
9 | O=C1Oc2ccccc2C(=O)/C1=C/N1C(=O)N/C(=C\c2cccc(O)c2)C1=O | > 100 µM |  | > 100 µM | > 100 µM | > 100 µM | > 100 µM | > 100 µM |  | > 100 µM | > 100 µM | > 100 µM | > 100 µM | > 100 µM | > 100 µM | > 100 µM | > 100 µM |  | 
10 | CCOC(=O)CCC(C(=O)OCC)n1nnc2ccc(Nc3c(C)[n+]([O-])c4cc(Cl)ccc4[n+]3[O-])cc21 (stereo unspecified) |  | 47 µM | > 100 µM | 49.7 µM | 55.5 µM | > 100 µM | 39.9 µM | 35.2 µM | > 100 µM | 39.1 µM | > 100 µM | 69.4 µM | 34.4 µM | > 100 µM | > 100 µM | 40.4 µM | 60.8 µM | 
11 | COCOCC1CCCN1CN1CCC[C@H]1COCOC (stereo partly specified) | > 100 µM | 99.5 µM | > 100 µM |  | > 100 µM | > 100 µM |  |  | > 100 µM | > 100 µM | > 100 µM | > 100 µM | > 100 µM | > 100 µM | > 100 µM | > 100 µM |  | 
12 | COc1ccc(C2=Nn3c(nc4sc(-c5ccccc5)cc4c3=O)SC2)cc1 | > 100 µM | > 100 µM | > 100 µM | > 100 µM | > 100 µM | > 100 µM | > 100 µM | > 100 µM | > 100 µM |  | > 100 µM | > 100 µM | > 100 µM |  | > 100 µM | > 100 µM |  | 
13 | Cc1nc2ccccc2c(=O)n1NC(=S)Nc1cccc(Cl)c1 |  | > 100 µM | > 100 µM |  | > 100 µM |  | > 100 µM | > 100 µM | > 100 µM | > 100 µM | > 100 µM | > 100 µM |  |  | > 100 µM |  | > 100 µM | 
14 | Cc1ccc2c(c1)SC(c1cc3c(cc1Br)OCO3)S2 (stereo unspecified) |  | > 31.6 µM | > 31.6 µM | > 31.6 µM | > 31.6 µM |  | > 31.6 µM | > 31.6 µM | > 31.6 µM | > 31.6 µM | > 31.6 µM | > 31.6 µM | > 31.6 µM | > 100 µM | > 31.6 µM |  | > 31.6 µM | 
15 | COc1ccc2oc(=O)c3c(c2c1C)OC(C)(C)C=C3 | > 100 µM | > 100 µM | > 100 µM | > 100 µM | > 100 µM | > 100 µM | > 100 µM | > 100 µM | > 100 µM |  | > 100 µM | > 100 µM | > 100 µM | > 100 µM | > 100 µM | > 100 µM |  | 
16 | O=c1cc(-c2ccccc2)oc2ccc(-c3ccc4oc(-c5ccccc5)cc(=O)c4c3)cc12 |  | 32.6 µM | 27.5 µM | 30 µM | 35.2 µM | 51.5 µM | 30.8 µM | 34.7 µM |  | 38.9 µM | 61.6 µM | 34.5 µM |  | 50 µM | 31.2 µM | 35.7 µM |  | 
